Source: patent US20200369728A1, “PEPTIDOMIMETIC MACROCYCLES AND USES THEREOF” (Aileron Therapeutics, Inc., priority 2015, published 2020)
Bridge positions count the residues as written; N and C are the ends. Square brackets hold non-standard residues; d marks the D form. Peptide text beside a SMILES is read from it. Phe(4-COOH) = N[C@@H](Cc1ccc(C(=O)O)cc1)C(=O)O; R8 = C=CCCCCCC[C@@](C)(N)C(=O)O; Cba = N[C@@H](CC1CCC1)C(=O)O; hLeu = CC(C)CC[C@H](N)C(=O)O; S5 = C=CCCC[C@](C)(N)C(=O)O

How the values were obtained:
RKO = test: Cell viability assay (MTT), RKO; conditions: read-out: RKO EC50 (72 h)
SJSA-1 cells = test: Cell lysis by peptidomimetic macrocycles (LDH release); format: cell-based; conditions: SJSA-1, 1 h
Procedure, shortened: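 SJSA-1 cells plated the day before, switched to RPMI with 1% FBS, then exposed 1 h at 37 °C to macrocycle at final 50 μM to 6.25 μM in 0.5% DMSO. LDH released into the supernatant was measured by kit. Controls: 0.5% DMSO (non-lytic), 10 μM melittin and 1% Triton X-100 (lytic).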

Caspase 3 = Caspase 3 detection assay in SJSA1 cells; format: cell-based; conditions: SJSA1, 48 h, Caspase 3 activation over DMSO-treated cells

| Compound | EC50 (RKO) [µM] | 6.25 μM % Lysed cells (1 h LDH) (SJSA-1 cells) [%] | 25 μM % Lysed cells (1 h LDH) (SJSA-1 cells) [%] | 50 μM % Lysed cells (1 h LDH) (SJSA-1 cells) [%] | caspase 0.3 μM (Caspase 3) | caspase 3 μM (Caspase 3) | caspase 10 μM (Caspase 3) | caspase 30 μM (Caspase 3) | caspase 1 μM (Caspase 3) |
| --- | --- | --- | --- | --- | --- | --- | --- | --- | --- |
| CC(=O)N[C@@H](CC(C)C)C(=O)N[C@H](C(=O)N[C@@H](Cc1ccccc1)C(=O)N[C@]1(C)CCCCCC/C=C/CCC[C@@](C)(C(=O)N[C@@H](CO)C(=O)N[C@@H](C)C(=O)N[C@@H](C)C(N)=O)NC(=O)[C@H](CCC(C)C)NC(=O)[C@H](CCC(N)=O)NC(=O)[C@H](C)NC(=O)[C@H](Cc2c[nH]c3ccccc23)NC(=O)[C@H](Cc2ccc(O)cc2)NC(=O)[C@H](C)NC1=O)[C@@H](C)O [compound 115] (Ac-LTF[R8]AYWAQ[hLeu][S5]SAA-NH2; staple (E) 4-11) | 5 to 15 | 0 | −1 | 6 | 1 | 10 | 26 | 32 |  |
| CC(=O)N[C@@H](CC(C)C)C(=O)N[C@H](C(=O)N[C@@H](Cc1ccccc1)C(=O)N[C@]1(C)CCCCCCC=CCCC[C@@](C)(C(=O)N[C@@H](CO)C(=O)N[C@H](C(=O)N[C@@H](CO)C(N)=O)C(C)C)NC(=O)[C@H](CC(C)C)NC(=O)[C@H](CCC(N)=O)NC(=O)[C@H](C)NC(=O)[C@H](Cc2c[nH]c3ccccc23)NC(=O)[C@H](Cc2ccc(O)cc2)NC(=O)[C@H](C)NC1=O)[C@@H](C)O [compound 121] (Ac-LTF[R8]AYWAQL[S5]SVS-NH2; staple 4-11) | < 5 | 1 | 1 | 7 | 1 | 5 | 19 | 30 |  |
| CC(=O)N[C@@H](CC(C)C)C(=O)N[C@H](C(=O)N[C@@H](Cc1ccccc1)C(=O)N[C@]1(C)CCCCCCC=CCCC[C@@](C)(C(=O)N[C@@H](CO)C(=O)N[C@@H](C)C(=O)N[C@@H](CO)C(N)=O)NC(=O)[C@H](CC(C)C)NC(=O)[C@H](CCC(N)=O)NC(=O)[C@H](C)NC(=O)[C@H](Cc2c[nH]c3ccccc23)NC(=O)[C@H](Cc2ccc(O)cc2)NC(=O)[C@H](C)NC1=O)[C@@H](C)O [compound 122] (Ac-LTF[R8]AYWAQL[S5]SAS-NH2; staple 4-11) | 5 to 15 | 1 | 0 | 6 | 1 | 2 | 15 | 30 |  |
| CC(=O)N[C@@H](CCC(=O)O)C(=O)N[C@H](C(=O)N[C@@H](Cc1ccccc1)C(=O)N[C@]1(C)CCCCCCC=CCCC[C@@](C)(C(=O)N[C@@H](CO)C(=O)N[C@@H](C)C(=O)N[C@@H](C)C(N)=O)NC(=O)[C@H](CC(C)C)NC(=O)[C@H](CCC(N)=O)NC(=O)[C@H](C)NC(=O)[C@H](Cc2c[nH]c3ccccc23)NC(=O)[C@H](Cc2ccc(O)cc2)NC(=O)[C@H](C(C)C)NC1=O)[C@@H](C)O [compound 125] (Ac-ETF[R8]VYWAQL[S5]SAA-NH2; staple 4-11) | 5 to 15 | 0 | 0 | 2 | 1 | 3 | 9 | 29 |  |
| CC(=O)N[C@@H](CCC(=O)O)C(=O)N[C@H](C(=O)N[C@@H](Cc1ccccc1)C(=O)N[C@]1(C)CCCCCCC=CCCC[C@@](C)(C(=O)N[C@@H](CO)C(=O)N[C@H](C(=O)N[C@@H](C)C(N)=O)C(C)C)NC(=O)[C@H](CC(C)C)NC(=O)[C@H](CCC(N)=O)NC(=O)[C@H](C)NC(=O)[C@H](Cc2c[nH]c3ccccc23)NC(=O)[C@H](Cc2ccc(O)cc2)NC(=O)[C@H](C(C)C)NC1=O)[C@@H](C)O [compound 126] (Ac-ETF[R8]VYWAQL[S5]SVA-NH2; staple 4-11) | > 30 | 1 | 1 | 1 | 1 | 1 | 6 | 30 |  |
| CC(=O)N[C@@H](CC(C)C)C(=O)N[C@H](C(=O)N[C@@H](Cc1ccc(F)c(F)c1)C(=O)N[C@]1(C)CCCCCC/C=C/CCC[C@@](C)(C(=O)N[C@@H](CO)C(=O)N[C@@H](C)C(=O)N[C@@H](C)C(N)=O)NC(=O)[C@H](CCC(C)C)NC(=O)[C@H](CCC(N)=O)NC(=O)[C@H](C)NC(=O)[C@H](Cc2c[nH]c3ccccc23)NC(=O)[C@H](Cc2ccc(O)cc2)NC(=O)[C@H](CCC(=O)O)NC1=O)[C@@H](C)O [compound 160] | > 30 | −1 | −1 | 1 | 2 | 10 | 16 | 31 |  |
| CC(=O)N[C@@H](CCC(=O)O)C(=O)N[C@H](C(=O)N[C@@H](Cc1ccccc1)C(=O)N[C@]1(C)CCCCCCC=CCCC[C@@](C)(C(=O)N[C@@H](CO)C(=O)N[C@@H](C)C(=O)N[C@@H](C)C(N)=O)NC(=O)[C@H](CC(C)C)NC(=O)[C@H](CCC(N)=O)NC(=O)[C@H](C)NC(=O)[C@H](Cc2c[nH]c3ccccc23)NC(=O)[C@H](Cc2ccc(O)cc2)NC(=O)[C@H](CCC(=O)O)NC1=O)[C@@H](C)O [compound 161] (Ac-ETF[R8]EYWAQL[S5]SAA-NH2; staple 4-11) | > 30 | 1 | −1 | 0 | 2 | 8 | 14 | 22 |  |
| CC(=O)N[C@@H](CC(C)C)C(=O)N[C@H](C(=O)N[C@@H](Cc1ccccc1)C(=O)N[C@]1(C)CCCCCCC=CCCC[C@@](C)(C(=O)N[C@@H](CO)C(=O)N[C@@H](C)C(=O)N[C@@H](C)C(N)=O)NC(=O)[C@H](CC(C)C)NC(=O)[C@H](C)NC(=O)[C@H](C(C)C)NC(=O)[C@H](Cc2c[nH]c3ccccc23)NC(=O)[C@H](Cc2ccc(O)cc2)NC(=O)[C@H](C)NC1=O)[C@@H](C)O [compound 196] (Ac-LTF[R8]AYWVAL[S5]SAA-NH2; staple 4-11) | < 5 | 0 | 0 | 3 | 1 | 4 | 33 | 26 |  |
| CC[C@H](C)[C@H](NC(=O)[C@H](C)NC(=O)[C@H](C)NC(=O)[C@]1(C)CCC/C=C/CCCCCC[C@@](C)(NC(=O)[C@H](Cc2ccccc2)NC(=O)[C@@H](NC(=O)[C@H](CC(C)C)NC(C)=O)[C@@H](C)O)C(=O)N[C@@H](CCC(=O)O)C(=O)N[C@@H](Cc2ccc(C(=O)O)cc2)C(=O)N[C@@H](Cc2c[nH]c3ccccc23)C(=O)N[C@@H](C)C(=O)N[C@@H](CCC(N)=O)C(=O)N[C@@H](CC2CCC2)C(=O)N1)C(=O)N[C@H](C)C(N)=O [compound 249] (Ac-LTF[R8]E[Phe(4-COOH)]WAQ[Cba][S5]AAI[dA]-NH2; staple (E) 4-11) | < 5 | 0 | 0 | 0 | 2 | 5 | 11 | 23 |  |
| CC(=O)N[C@@H](CC(C)C)C(=O)N[C@H](C(=O)N[C@@H](Cc1ccccc1)C(=O)N[C@]1(C)CCCCCC/C=C/CCC[C@@](C)(C(=O)N[C@@H](C)C(=O)N[C@@H](C)C(=O)N[C@@H](C)C(=O)N[C@@H](C)C(=O)N[C@@H](C)C(=O)N[C@H](C)C(N)=O)NC(=O)[C@H](CC2CCC2)NC(=O)[C@H](CCC(N)=O)NC(=O)[C@H](C)NC(=O)[C@H](Cc2c[nH]c3ccccc23)NC(=O)[C@H](Cc2ccc(C(=O)O)cc2)NC(=O)[C@H](CCC(=O)O)NC1=O)[C@@H](C)O [compound 349] | 5 to 15 | 0 | 0 | 0 | 1 | 11 | 16 | 24 | 8 |
| CC(=O)N[C@@H](CC(C)C)C(=O)N[C@H](C(=O)N[C@@H](Cc1ccccc1)C(=O)N[C@]1(C)CCCCCC/C=C/CCC[C@@](C)(C(=O)N[C@@H](C)C(=O)N[C@@H](C)C(=O)N[C@@H](C)C(=O)N[C@@H](C)C(=O)N[C@@H](C)C(=O)N[C@H](C)C(N)=O)NC(=O)[C@H](CC2CCC2)NC(=O)[C@H](CCC(N)=O)NC(=O)[C@H](CO)NC(=O)[C@H](Cc2c[nH]c3ccccc23)NC(=O)[C@H](Cc2ccc(O)cc2)NC(=O)[C@H](CCC(=O)O)NC1=O)[C@@H](C)O [compound 351] | 5 to 15 | 0 | 0 | 0 | 3 | 13 | 15 | 24 | 9 |
